Laboratory results from US8067408B2, “Dual pharmacophores—PDE4-muscarinic antagonistics” (priority 2008, dated 2011).
Counter-ions that a name gives are not always drawn.

| Structure (SMILES) | melting point |
| --- | --- |
| O=C(O)c1cccc(C(=O)NCc2ccc(F)c(-c3cccc(CO)c3)c2)c1 | 169 to 171 °C |
| CCc1nc2c(cnn2CC)c(NC2CCOCC2)c1CNC(=O)c1cccc(C(=O)NCc2ccc(F)c(-c3cccc(CN4C[C@@H]5C[C@H]4CN5C(=O)OC(C)(C)C)c3)c2)c1 | 119 to 123 °C |
| CCc1nc2c(cnn2CC)c(NC2CCOCC2)c1CNC(=O)c1cccc(C(=O)O)c1 | 207 to 209 °C |
| CCc1nc2c(cnn2CC)c(NC2CCOCC2)c1CNC(=O)c1cc(C)cc(C(=O)NCc2cccc(-c3cccc(C=O)c3)c2)c1 | 109 to 112 °C |
| CCc1nc2c(cnn2CC)c(NC2CCOCC2)c1CNC(=O)c1cc(C)cc(C(=O)NCc2ccc(F)c(-c3cccc(C=O)c3)c2)c1 | 107 to 110 °C |
| CCc1nc2c(cnn2CC)c(NC2CCOCC2)c1CNC(=O)c1cc(C)cc(C(=O)NCc2ccc(Cl)c(Br)c2)c1 | 212 to 214 °C |
| CCc1nc2c(cnn2CC)c(NC2CCOCC2)c1CNC(=O)c1cc(C)cc(C(=O)NCc2ccc(Cl)c(-c3cccc(C=O)c3)c2)c1 | 153 to 156 °C |
| CCc1nc2c(cnn2CC)c(NC2CCOCC2)c1CNC(=O)c1cc(C)cc(C(=O)NCc2ccc(OC)c(-c3cccc(C=O)c3)c2)c1 | 117 to 119 °C |
| CCc1nc2c(cnn2CC)c(NC2CCOCC2)c1CNC(=O)c1cc(C)cc(C(=O)NCc2ccc(C)c(Br)c2)c1 | 117 to 119 °C |
| CCc1nc2c(cnn2CC)c(NC2CCOCC2)c1CNC(=O)c1cc(C)cc(C(=O)NCc2ccc(C)c(-c3cccc(C=O)c3)c2)c1 | 117 to 120 °C |
| CCc1nc2c(cnn2CC)c(NC2CCOCC2)c1CNC(=O)c1cccc(C(=O)NCc2ccc(C)c(-c3cccc(CN4CCN(C)CC4)c3)c2)c1 [Example 193, N-{[1,6-Diethyl-4-(tetrahydro-2H-pyran-4-ylamino)-1H-pyrazolo[3,4-b]pyridin-5-yl]methyl}-N′-({6-methyl-3′-[(4-methyl-1-piperazinyl)methyl]-3-biphenylyl}methyl)-1,3-benzenedicarboxamide] | 121 to 124 °C |
| CCc1nc2c(cnn2CC)c(NC2CCOCC2)c1CNC(=O)c1cccc(C(=O)NCc2ccc(OC)c(-c3cccc(CN4C[C@@H]5C[C@H]4CN5)c3)c2)c1 [Example 194, N-{[3′-[(1S,4S)-2,5-Diazabicyclo [2.2.1]hept-2-ylmethyl]-6-(methyloxy)-3-biphenylyl]methyl}-N′-{[1,6-diethyl-4-(tetrahydro-2H-pyran-4-ylamino)-1H-pyrazolo[3,4-b]pyridin-5-yl]methyl}-1,3-benzenedicarboxamide] | 129 to 131 °C |
| CCc1nc2c(cnn2CC)c(NC2CCOCC2)c1CNC(=O)c1cccc(C(=O)NCc2ccc(OC)c(-c3cccc(CN4CCCNCC4)c3)c2)c1 [Example 195, N-{[1,6-Diethyl-4-(tetrahydro-2H-pyran-4-ylamino)-1H-pyrazolo[3,4-b]pyridin-5-yl]methyl}-N′-{[3′-(hexahydro-1H-1,4-diazepin-1-ylmethyl)-6-(methyloxy)-3-biphenylyl]methyl}-1,3-benzenedicarboxamide] | 143 to 147 °C |
| CCc1nc2c(cnn2CC)c(NC2CCOCC2)c1CNC(=O)c1cccc(C(=O)NCc2ccc(C)c(-c3cccc(CN4CCCNCC4)c3)c2)c1 [Example 196, N-{[1,6-Diethyl-4-(tetrahydro-2H-pyran-4-ylamino)-1H-pyrazolo[3,4-b]pyridin-5-yl]methyl}-N′-{[3′-(hexahydro-1H-1,4-diazepin-1-ylmethyl)-6-methyl-3-biphenylyl]methyl}-1,3-benzenedicarboxamide] | 118 to 120 °C |
| CCc1nc2c(cnn2CC)c(NC2CCOCC2)c1CNC(=O)c1cccc(C(=O)NCc2ccc(C)c(-c3cccc(CN4C[C@@H]5C[C@H]4CN5)c3)c2)c1 [Example 197, N-({3′-[(1S,4S)-2,5-Diazabicyclo [2.2.1]hept-2-ylmethyl]-6-methyl-3-biphenylyl}methyl)-N′-{[1,6-diethyl-4-(tetrahydro-2H-pyran-4-ylamino)-1H-pyrazolo[3,4-b]pyridin-5-yl]methyl}-1,3-benzenedicarboxamide] | 138 to 140 °C |
| CCc1nc2c(cnn2CC)c(NC2CCOCC2)c1CNC(=O)c1cccc(C(=O)NCc2ccc(F)c(-c3cccc(CN4CCN(C(C)C)CC4)c3)c2)c1 [Example 203, N-{[1,6-Diethyl-4-(tetrahydro-2H-pyran-4-ylamino)-1H-pyrazolo[3,4-b]pyridin-5-yl]methyl}-N′-[(6-fluoro-3′-{[4-(1-methylethyl)-1-piperazinyl]methyl}-3-biphenylyl)methyl]-1,3-benzenedicarboxamide] | 165 to 169 °C |
| CCc1nc2c(cnn2CC)c(NC2CCOCC2)c1CNC(=O)c1cccc(C(=O)NCc2ccc(F)c(-c3cccc(CN(C)CCN(C)C)c3)c2)c1 [Example 206, N-{[1,6-Diethyl-4-(tetrahydro-2H-pyran-4-ylamino)-1H-pyrazolo[3,4-b]pyridin-5-yl]methyl}-N′-[(3′-{[[2-(dimethylamino)-ethyl](methyl)amino]methyl}-6-fluoro-3-biphenylyl)methyl]-1,3-benzenedicarboxamide] | 126 to 129 °C |
| CCc1nc2c(cnn2CC)c(NC2CCOCC2)c1CNC(=O)c1cccc(C(=O)NCc2ccc(OC)c(-c3cccc(CN4CCNCC4)c3)c2)c1 [Example 209, N-{[1,6-Diethyl-4-(tetrahydro-2H-pyran-4-ylamino)-1H-pyrazolo[3,4-b]pyridin-5-yl]methyl}-N′-{[6-(methyloxy)-3′-(1-piperazinylmethyl)-3-biphenylyl]methyl}-1,3-benzenedicarboxamide] | 138 to 140 °C |

The next lines start with the values.

| melting point | Structure (SMILES) |
| --- | --- |
| 100 to 113 °C | CCc1nc2c(cnn2CC)c(NC2CCOCC2)c1CNC(=O)c1cccc(C(=O)NCc2ccc(F)c(-c3cccc(CN4CCN[C@@H](C)C4)c3)c2)c1 (as salt: TFA) [Example 205, N-{[1,6-Diethyl-4-(tetrahydro-2H-pyran-4-ylamino)-1H-pyrazolo[3,4-b]pyridin-5-yl]methyl}-N′-[(6-fluoro-3′-{[(3S)-3-methyl-1-piperazinyl]methyl}-3-biphenylyl)methyl]-1,3-benzenedicarboxamide] |
| 135 to 138 °C | CCc1nc2c(cnn2CC)c(NC2CCOCC2)c1CNC(=O)c1cccc(C(=O)NCc2ccc(C)c(-c3cccc(CN4CCNCC4)c3)c2)c1 [Example 192, N-{[1,6-Diethyl-4-(tetrahydro-2H-pyran-4-ylamino)-1H-pyrazolo[3,4-b]pyridin-5-yl]methyl}-N′-{[6-methyl-3′-(1-piperazinylmethyl)-3-biphenylyl]methyl}-1,3-benzenedicarboxamide] |
| 187 to 190 °C (dec.) | CCc1nc2c(cnn2CC)c(NC2CCOCC2)c1CNC(=O)c1cccc(C(=O)NCc2ccc(F)c(-c3cccc(CN4C[C@H](C)NC[C@H]4C)c3)c2)c1 [Example 198, N-{[1,6-Diethyl-4-(tetrahydro-2H-pyran-4-ylamino)-1H-pyrazolo[3,4-b]pyridin-5-yl]methyl}-N′-[(3′-{[(2R,5S)-2,5-dimethyl-1-piperazinyl]methyl}-6-fluoro-3-biphenylyl)methyl]-1,3-benzenedicarboxamide] |
| 128 to 131 °C | CCc1nc2c(cnn2CC)c(NC2CCOCC2)c1CNC(=O)c1cccc(C(=O)NCc2ccc(F)c(-c3cccc(CN4CCCCC4)c3)c2)c1 [Example 199, N-{[1,6-Diethyl-4-(tetrahydro-2H-pyran-4-ylamino)-1H-pyrazolo[3,4-b]pyridin-5-yl]methyl}-N′-{[6-fluoro-3′-(1-piperidinylmethyl)-3-biphenylyl]methyl}-1,3-benzenedicarboxamide] |
| 169 to 173 °C | CCc1nc2c(cnn2CC)c(NC2CCOCC2)c1CNC(=O)c1cccc(C(=O)NCc2ccc(F)c(-c3cccc(CN4CCN(C)CC4)c3)c2)c1 [Example 200, N-{[1,6-Diethyl-4-(tetrahydro-2H-pyran-4-ylamino)-1H-pyrazolo[3,4-b]pyridin-5-yl]methyl}-AN-({6-fluoro-3′-[(4-methyl-1-piperazinyl)methyl]-3-biphenylyl}methyl)-1,3-benzenedicarboxamide] |
| 147 to 150 °C | CCc1nc2c(cnn2CC)c(NC2CCOCC2)c1CNC(=O)c1cccc(C(=O)NCc2ccc(F)c(-c3cccc(CN4CCNC(=O)C4)c3)c2)c1 [Example 201, N-{[1,6-Diethyl-4-(tetrahydro-2H-pyran-4-ylamino)-1H-pyrazolo[3,4-b]pyridin-5-yl]methyl}-N′-({6-fluoro-3′-[(3-oxo-1-piperazinyl)methyl]-3-biphenylyl}methyl)-1,3-benzenedicarboxamide] |
| 155 to 158 °C | CCc1nc2c(cnn2CC)c(NC2CCOCC2)c1CNC(=O)c1cccc(C(=O)NCc2ccc(F)c(-c3cccc(CN4CCN(CC)CC4)c3)c2)c1 [Example 202, N-{[1,6-Diethyl-4-(tetrahydro-2H-pyran-4-ylamino)-1H-pyrazolo[3,4-b]pyridin-5-yl]methyl}-N′-({3′-[(4-ethyl-1-piperazinyl)methyl]-6-fluoro-3-biphenylyl}methyl)-1,3-benzenedicarboxamide] |
| 145 to 148 °C | CCc1nc2c(cnn2CC)c(NC2CCOCC2)c1CNC(=O)c1cccc(C(=O)NCc2ccc(F)c(-c3cccc(CN4CCCNCC4)c3)c2)c1 [Example 204, N-{[1,6-Diethyl-4-(tetrahydro-2H-pyran-4-ylamino)-1H-pyrazolo[3,4-b]pyridin-5-yl]methyl}-N′-{[6-fluoro-3′-(hexahydro-1H-1,4-diazepin-1-ylmethyl)-3-biphenylyl]methyl}-1,3-benzenedicarboxamide] |
| 129 to 133 °C | CCc1nc2c(cnn2CC)c(NC2CCOCC2)c1CNC(=O)c1cccc(C(=O)NCc2ccc(F)c(-c3cccc(CN4C[C@@H]5C[C@H]4CN5)c3)c2)c1 [Example 207, N-({3′-[(1S,4S)-2,5-Diazabicyclo [2.2.1]hept-2-ylmethyl]-6-fluoro-3-biphenylyl}methyl)-N′-{[1,6-diethyl-4-(tetrahydro-2H-pyran-4-ylamino)-1H-pyrazolo[3,4-b]pyridin-5-yl]methyl}-1,3-benzenedicarboxamide] |
